Assay results as given in patent US20240269158A1, “THERAPEUTIC AGENTS AND METHODS FOR TREATMENT OF BARTONELLOSIS” (THE ADMINISTRATORS OF THE TULANE EDUCATIONAL FUND, priority 2021, published 2024).
Like-named read-outs stand apart in the source and are kept apart here.

Legend:
[1] = tested on: B. henselae; test: MIC assay in liquid culture media (OD600); format: cell-based, Bartonella henselae; details: Bartonella henselae, read-out: MIC
Procedure: (§1) The B. henselae strains used were San Antonio 2, 267HO04, a human clinical isolate and B. vinsonii subsp. berkhoffii. Both the bacteria were initially grown on tryptic soy agar (TSA) supplemented with 5% defibrinated sheep blood plates that were either pre-made (Remel, R01198) or homemade, in a humidified atmosphere at 37° C. with 5% CO2 for 7 days. For the preparation of liquid cultures, an individual well-grown colony from the plate was resuspended in 15 ml Falcon tubes containing 3 mL of either Schneider's insect media supplemented with 10% FBS, or Grace's insect media (Gibco, 11605-094) supplemented with 10% FBS, or BAPGM serum-free liquid media. The cultures grew for 7 more days in the atmosphere as above without shaking. The number of viable bacteria was determined by either plating serial dilutions of the culture on plates for CFU or by live/dead staining. Before every experiment, bacteria were mixed well and passed through 22-gauge needle to break large clumps of bacteria.
(§2) Optical density (OD) of 7-day old bacterial liquid culture that was grown from an individual colony was measured using a spectrophotometer (Bio-Rad, SmartSpec 300, 170-2501). Bacterial culture was then diluted down to an OD of 0.1 ? 3×10^8 cfu/ml with the respective media.
(§3) To determine the MIC of the antibiotics and for the visualization of the bacterial growth, a clear 96-well plate was used. Into each well of a 96-well plate, 50 μl of the 0.1 OD bacterial culture and 50 μl of the liquid media containing antibiotics were added to the wells bringing the total volume to 100 μl of 0.05 OD bacteria (CFU ? 1.5×10^7) in each well. Wells containing only bacteria with solvent used in the dilution of the antibiotics served as a positive control to verify the growth of bacteria. As a negative control, wells containing only media and solvents were used. Each concentration of diluted antibiotic was run in 4 replicates to minimize the error rate. The 96-well plate was covered with the lid and incubated at 37° C. with 5% CO2. OD of the culture was read after 48 hrs and 96 hrs using a hybrid multi-mode microplate reader (Biotek, Synergy H4 hybrid reader) at OD600. The assay was repeated three times.
(§4) Therapeutic agent stocks were prepared in the following solvents: 10 mg/ml of ceftriaxone (USP), doxycycline (Fisher scientific, D9891-1G), gentamicin (Fisher scientific, 1405-41-0), ampicillin (Fisher scientific, 69-52-3) and azlocillin (Flightpath) in sterile cell culture grade water, whereas 5 mg/ml of azithromycin (Sigma, PZ0007-5MG) was dissolved in sterile cell culture grade DMSO. Antibiotics were then aliquoted and stored at either −80° C. or −20° C. until further use. On the day of assay, these stock concentrations were diluted to 1 mg/ml and 100 μg/ml in the respected bacterial culture media for MIC and cell-free, liquid culture MBC assays. For the DH82 cell-based MBC assay, antibiotics were diluted in EMEM media supplemented with 15% heat inactivated FBS.
(§5) The determination of susceptibility to therapeutic agents was performed in liquid culture media. Six different therapeutic agents were tested with multiple different concentrations against B. henselae and B. vinsonii. Therapeutic agent concentrations tested were as follows: Ceftriaxone 0.001, 0.01, 0.1, 0.3, 0.5, 1, 2, and 5 μg/ml; doxycycline 0.001, 0.01, 0.1, 0.3, 0.5, 1, 2, 5, and 10 μg/ml, gentamicin: 0.01, 0.1, 0.3, 0.5, 1, 2, 4, 8, and 16 μg/ml, and azithromycin: 0.001, 0.005, 0.02, 0.1, 0.3, 0.5, 1, 2, 5, and 10 μg/ml, were tested based on previous antibiotic susceptibility studies. The following azlocillin dilutions were included: 0.001, 0.005, 0.01, 0.02, 0.5, 1, 2, and 5 μg/ml. The ampicillin dilutions included were as follows: 0.001, 0.005, 0.01, 0.02, 0.5, 1, 2, 4, and 8 μg/ml. Both the species of Bartonella were susceptible to all the antibiotics that were used in BAPGM and Grace's culture liquid mediums. […]

[2] = tested on: B. vinsonii; test: MIC assay in liquid culture media (OD600); format: cell-based, B. vinsonii subsp. berkhoffii; details: Grace's insect media, read-out: MIC
Procedure: as §1, §2, §3, §4, §5

[3] = tested on: B. henselae; test: Cell-free, liquid culture MBC assay; format: cell-based, Bartonella henselae; details: Bartonella henselae, 96 hrs, plated on blood agar, read-out: MBC
Procedure: as §1
(§6) Briefly, the bacterial culture that was treated with therapeutic agents for 96 hrs was collected into a 1.5 ml microcentrifuge tubes and centrifuged at 7000 rpm for 10 min. The supernatant was removed, and the bacterial pellet was washed with 1×PBS twice. The bacterial pellet was then resuspended in 100 μL of 1×PBS, plated onto blood agar plates and incubated at 37° C. with 5% CO2 for about 14 days. This assay was repeated three times with all the 6 different antibiotics (azlocillin, azithromycin, ceftriaxone, doxycycline, gentamicin and ampicillin) and at different concentrations.
as §4
For this assay, both B. henselae and B. vinsonii were grown in Grace's insect media and were tested against all of the 6 antibiotics (ceftriaxone, doxycycline, gentamicin, azithromycin, azlocillin, ampicillin).

[4] = tested on: B. vinsonii; test: Cell-free, liquid culture MBC assay; format: cell-based, B. vinsonii subsp. berkhoffii; details: 96 hrs, plated on blood agar, read-out: MBC
Procedure: as §1, §6, §4
(§7) For this assay, both B. henselae and B. vinsonii were grown in Grace's insect media and were tested against all of the 6 antibiotics (ceftriaxone, doxycycline, gentamicin, azithromycin, azlocillin, ampicillin). […] However, ceftriaxone, gentamicin, azithromycin, and azlocillin were all bactericidal and completely eliminated the growth at concentrations below 10 µg/ml. Table 2 provides comparison of MBCs for B. henselae and B. vinsonii strains in cell-free liquid culture medium determined by incubating the bacteria with antibiotics in a 96-well plate and plating on tryptic soy agar supplemented with 5% sheep blood. Additionally, MBC for B. henselae determined by DH82 cell-based assay (right column) is provided.

[5] = tested on: B. henselae and B. vinsonii; test: Cell-free MBC assay, summary over both species; format: cell-based, Bartonella; details: both species; Grace's insect media
Procedure: as §6, §7

[6] = tested on: intracellular B. henselae in DH82 cells; test: DH82 cell-based MBC assay (coculture); set-up: species or system Bartonella henselae (canine DH82 cells); details: Bartonella henselae; B. henselae; DH82 cell-based assay; 96 hours; read-out: MBC
Procedure: DH82 are a canine cell line having a macrophage-like morphology. Cells were initially cultured in T75-Flasks (Corning, 430641U) until confluency was reached and were split at a ratio of 1:4 for every 2-3 days. Cells were then seeded into either 24-well cell culture plates (Corning, 3526) for coculture assay or 8-well chamber slides (Millipore #PEGGS0816) for immunofluorescence assays. A total of 50,000 cells were seeded into each well of a 24-well plate or per chamber of an 8-well chamber slide with EMEM with 15% FBS and incubated for 24-48 hours before infections.
as §4
Bacteria (B. henselae) that were grown in Grace's insect media, were centrifuged at 7000 rpm for 10 min. The supernatant was removed and washed with 1×PBS for three times. After the washes, pellet was resuspended in EMEM media supplemented with 15% heat inactivated FBS. This bacterial suspension was then added to DH82 cells at a multiplicity of infection (MOI) of 1:50 and incubated for 2 hours. After 2 hours, unbound bacteria were removed by washing the cells with only EMEM media 3 times each 15 min wash. Cells were then incubated with EMEM+15% FBS media at 37° C. with 5% CO2 for 48 hours.
After 48 hrs of incubation, the media was removed from the cells and the therapeutic agents that were diluted in EMEM+15% FBS was added. Each therapeutic agent was diluted at 11 different concentrations (16, 8, 4, 2, 1, 0.5, 0.25, 0.125, 0.062, 0.031, 0.0156 μg/ml), as described above and incubated for 96 hours. […] The bactericidal activity of the therapeutic agents were then evaluated by plating the lysed cells on blood agar plates. Briefly, infected DH82 cells were initially washed for 30 min twice to remove the antibiotics that were added. Later, cells were osmotically lysed by adding 1 ml of sterile ice-cold distilled water and incubated for 5 min on ice. The lysed cells were then plated onto blood agar plates and incubated at 37° C. with 5% CO2 for about 10 days to evaluate the growth of viable B. henselae. This experiment was conducted in duplicates and repeated twice with all 6 antibiotics including 11 different concentrations. The untreated infected cells were used as a positive control and untreated uninfected cells served as a negative control. The CFU counts are presented as average±standard deviation.
To evaluate the bactericidal activity and to determine if these antibiotics could penetrate the eukaryotic […], a new DH82 cell-based coculture system was utilized. […] Uninfected cells stained with primary rabbit B. henselaehyperimmunized polyclonal (primary) and goat anti-rabbit IgG Alexa fluor 594 (secondary) antibodies were used as a negative control. As an isotype control, DH82 cells infected with B. henselae and incubated with primary rabbit IgG were used.

[7] = tested on: B. henselae; details: cited from earlier work
[8] = tested on: B. henselae; details: E-test methodology or agar dilution method; cited from earlier work

Row | SMILES | MIC ([1]; BAPGM) [µg/mL] | MIC ([1]; Grace's insect media) [µg/mL] | MIC ([1]; Schneider's insect medium) [µg/mL] | MIC [2] [µg/mL] | MBC [3] [µg/mL] | MBC [4] [µg/mL] | concentration that did not completely inhibit the growth of bacteria [5] [µg/mL] | MBC [6] [µg/mL] | activity against growing bacterial culture [7] | activity against stationary phase B. henselae [7] | inhibition in the growth of B. henselae in vitro [8]
1 | C[C@H]1c2cccc(O)c2C(=O)C2=C(O)[C@]3(O)C(=O)C(C(N)=O)=C(O)[C@@H](N(C)C)[C@@H]3[C@@H](O)[C@@H]21 [Doxycycline, doxycycline] | 0.01 to 0.1 | 0.01 to 0.1 | > 0.3 | 0.01 to 0.1 | > 10 | > 10 | > 10 | > 16 | – | – | –
2 | CC1(C)S[C@@H]2[C@H](NC(=O)[C@H](N)c3ccccc3)C(=O)N2[C@H]1C(=O)O [Ampicillin, ampicillin] | – | 0.02 to 0.1 | – | 0.01 to 0.02 | > 8 | > 8 | > 8 | > 16 | – | – | –
3 | O=C(O)c1cn(C2CC2)c2cc(N3CCNCC3)c(F)cc2c1=O [ciprofloxacin] | – | – | – | – | – | – | – | – | effective | very poor activity | –
4 | CO[C@H]1/C=C/O[C@@]2(C)Oc3c(C)c(O)c4c(O)c(c(/C=N/N5CCN(C)CC5)c(O)c4c3C2=O)NC(=O)/C(C)=C\C=C\[C@H](C)[C@H](O)[C@@H](C)[C@@H](O)[C@@H](C)[C@H](OC(C)=O)[C@@H]1C [rifampin] | – | – | – | – | – | – | – | – | effective | very poor activity | Inhibition in the growth
5 | CC[C@H]1OC(=O)[C@H](C)[C@@H](O[C@H]2C[C@@](C)(OC)[C@@H](O)[C@H](C)O2)[C@H](C)[C@@H](O[C@@H]2O[C@H](C)C[C@H](N(C)C)[C@H]2O)[C@](C)(O)C[C@@H](C)C(=O)[C@H](C)[C@@H](O)[C@]1(C)O [crythromycin] | – | – | – | – | – | – | – | – | effective | very poor activity | –
